Measured values published in patent US20050013852A1, “Dermal for amino laevulinic acid” (priority 2000, published 2005).

Tests used:
[1] = fresh ALA solution, approximate physiological value of 8, after two weeks; cited from earlier work
[2] = sedimentation (sinking speed) of ALA particles in NE solution; format: physicochemical; details: sieve fraction 60-90 μm

Sinking speed of the ALA particles in solution ([2]; NE 12 % g/g in solution): 396 μm/10 s
Sinking speed of the ALA particles in solution ([2]; NE 18 % g/g in solution): 119 μm/10 s
Sinking speed of the ALA particles in solution ([2]; NE 24 % g/g in solution): 3 μm/10 s
SMILES: NCC(=O)CCC(=O)O [ALA, 5-aminolaevulinic acid]
undecomposed active substance [1]: approx. 10%
